In PubChem BioAssay AID248 (DTP/NCI, 2004):
Toxic doses and inconclusive results are not listed. Rule as the data show it: active = T/C of 150% or more; inactive = T/C below 125%.

Tested on: L1210 leukemia ip in BDF1 mice, survival T/C
Test: NCI In Vivo Anticancer Drug Screen. Data for tumor model L1210 Leukemia (intraperitoneal) in B6D2F1 (BDF1) mice
Conditions: endpoint: mean survival time, higher = longer survival
Outline: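 Mice bearing the transplanted tumor received compound or vehicle. Survival of the treated group was divided by that of the vehicle-treated control group to give the ratio.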

[1] = dose: 100.0 mg/kg/injection, schedule: Q01DX009 (ip), vehicle: Klucel (hydroxypropylcellulose) (HPC)
[2] = dose: 200.0 mg/kg/injection, schedule: Q01DX009 (ip), vehicle: Klucel (hydroxypropylcellulose) (HPC)
[3] = dose: 100.0 mg/kg/injection, schedule: Q01DX001 (ip), vehicle: saline with Tween-80
[4] = dose: 100.0 mg/kg/injection, schedule: Q01DX009 (ip), vehicle: saline with Tween-80
[5] = dose: 100.0 mg/kg/injection, schedule: Q04DX003 (ip), vehicle: saline with Tween-80
[6] = dose: 200.0 mg/kg/injection, schedule: Q01DX009 (ip), vehicle: saline with Tween-80
[7] = dose: 200.0 mg/kg/injection, schedule: Q04DX003 (ip), vehicle: saline with Tween-80
[8] = dose: 400.0 mg/kg/injection, schedule: Q01DX009 (ip), vehicle: saline with Tween-80
[9] = dose: 400.0 mg/kg/injection, schedule: Q04DX003 (ip), vehicle: saline with Tween-80
[10] = dose: 100.0 mg/kg/injection, schedule: Q01DX001 (ip), vehicle: saline
[11] = dose: 200.0 mg/kg/injection, schedule: Q01DX001 (ip), vehicle: saline
[12] = dose: 400.0 mg/kg/injection, schedule: Q01DX001 (ip), vehicle: saline
[13] = dose: 100.0 mg/kg/injection, schedule: Q04DX003 (ip), vehicle: Klucel (hydroxypropylcellulose) (HPC)
[14] = dose: 200.0 mg/kg/injection, schedule: Q04DX003 (ip), vehicle: Klucel (hydroxypropylcellulose) (HPC)
[15] = dose: 400.0 mg/kg/injection, schedule: Q04DX003 (ip), vehicle: Klucel (hydroxypropylcellulose) (HPC)
[16] = dose: 100.0 mg/kg/injection, schedule: Q01DX001 (ip), vehicle: carboxymethylcellulose (CMC)
[17] = dose: 200.0 mg/kg/injection, schedule: Q01DX001 (ip), vehicle: carboxymethylcellulose (CMC)
[18] = dose: 400.0 mg/kg/injection, schedule: Q01DX001 (ip), vehicle: carboxymethylcellulose (CMC)
[19] = dose: 50.0 mg/kg/injection, schedule: Q01DX001 (ip), vehicle: saline
[20] = dose: 100.0 mg/kg/injection, schedule: Q04DX003 (ip), vehicle: saline
[21] = dose: 200.0 mg/kg/injection, schedule: Q04DX003 (ip), vehicle: saline
[22] = dose: 400.0 mg/kg/injection, schedule: Q04DX003 (ip), vehicle: saline

Measured: T/C

COc1ccc2c(ccc3nc(CCC(=O)O)n(C)c(=O)c32)c1
inactive: dose: 50.0 mg/kg/injection, schedule: Q01DX009 (ip), vehicle: Klucel (hydroxypropylcellulose) (HPC) 96 % of control | [1] 96 % of control | [2] 108 % of control

OC(COc1ccc(Cl)cc1)COc1ccc(Cl)cc1
inactive: [3] 95 % of control | [4] 97 % of control | [5] 98 % of control | [6] 98 % of control | [7] 103 % of control | [8] 101 % of control | [9] 95 % of control

CCc1c(C)nnn1-c1ccccc1
inactive: dose: 75.0 mg/kg/injection, schedule: Q01DX001 (ip), vehicle: saline 94 % of control | dose: 150.0 mg/kg/injection, schedule: Q01DX001 (ip), vehicle: saline 91 % of control

CN(C)C=Nc1c(I)cc(I)c(CCC(=O)O)c1I
inactive: [10] 96 % of control | [11] 96 % of control | [12] 94 % of control

O=P(Oc1ccccc1)(Oc1ccccc1)c1ccccc1
inactive: [13] 95 % of control | [14] 98 % of control | [15] 98 % of control

CCOC(=O)NS(=O)(=O)Nc1ccccc1
inactive: [16] 100 % of control | [17] 109 % of control | [18] 95 % of control

Cc1cc(O)c(C(=O)/C=C/c2ccccc2)c(=O)[nH]1
inactive: [10] 86 % of control | [11] 96 % of control | [12] 92 % of control

Cc1cccc(NC(=O)NCCCl)c1C
inactive: [16] 91 % of control | [17] 91 % of control | [18] 93 % of control

O=c1[nH]c(=S)[nH]c2c1CP(=S)(c1ccccc1)CC2 (stereo not drawn)
inactive: dose: 100.0 mg/kg/injection, schedule: Q04DX002 (ip), vehicle: saline with Tween-80 106 % of control | dose: 200.0 mg/kg/injection, schedule: Q04DX002 (ip), vehicle: saline with Tween-80 100 % of control | dose: 400.0 mg/kg/injection, schedule: Q04DX002 (ip), vehicle: saline with Tween-80 100 % of control

COC(c1ccccc1)c1ccccc1
inactive: [19] 109 % of control | [10] 94 % of control | [11] 100 % of control | [12] 94 % of control

CC(C)(C)OC(=O)NC(Cc1cncn1Cc1ccccc1)C(=O)NC(Cc1c[nH]c2ccccc12)C(=O)OCc1ccccc1 (stereo not drawn)
inactive: [20] 97 % of control | [21] 93 % of control | [22] 95 % of control

Cc1ccc(S(=O)(=O)N/N=C2/C(=O)C3CCC2C3)cc1 (stereo not drawn)
inactive: dose: 50.0 mg/kg/injection, schedule: Q01DX001 (ip), vehicle: saline with Tween-80 92 % of control | [3] 92 % of control | dose: 200.0 mg/kg/injection, schedule: Q01DX001 (ip), vehicle: saline with Tween-80 87 % of control

N#Cc1ccc(C#N)c2ccccc12
inactive: [5] 96 % of control | [7] 98 % of control | [9] 96 % of control

COC(C)c1ccccc1 (stereo not drawn)
inactive: dose: 103.0 mg/kg/injection, schedule: Q01DX Z (ip), vehicle: methylcellulose (MC) 91 % of control | dose: 155.0 mg/kg/injection, schedule: Q01DX Z (ip), vehicle: methylcellulose (MC) 96 % of control | dose: 233.0 mg/kg/injection, schedule: Q01DX Z (ip), vehicle: methylcellulose (MC) 96 % of control | dose: 350.0 mg/kg/injection, schedule: Q01DX Z (ip), vehicle: methylcellulose (MC) 102 % of control

CC1(C)N=C(N)N=C(N)N1c1cccc(CCCCC(=O)CCl)c1
inactive: dose: 12.5 mg/kg/injection, schedule: Q04DX003 (ip), vehicle: saline 109 % of control | dose: 25.0 mg/kg/injection, schedule: Q04DX003 (ip), vehicle: saline 102 % of control | dose: 50.0 mg/kg/injection, schedule: Q04DX003 (ip), vehicle: saline 110 % of control

O=C(O)C1CCCCC1C(=O)NCc1ccco1 (stereo not drawn)
inactive: [1] 95 % of control | [2] 96 % of control | dose: 400.0 mg/kg/injection, schedule: Q01DX009 (ip), vehicle: Klucel (hydroxypropylcellulose) (HPC) 88 % of control

COc1ccc(CCN=C(c2ccccc2)c2ccccc2)cc1OC
inactive: [20] 94 % of control | [21] 94 % of control | [22] 97 % of control

Nc1ccccc1SC1CC(=O)N(c2ccc(I)cc2)C1=O (stereo not drawn)
inactive: dose: 25.0 mg/kg/injection, schedule: Q04DX003 (ip), vehicle: other 88 % of control | dose: 50.0 mg/kg/injection, schedule: Q04DX003 (ip), vehicle: other 91 % of control | dose: 100.0 mg/kg/injection, schedule: Q01DX009 (ip), vehicle: other 94 % of control | dose: 100.0 mg/kg/injection, schedule: Q04DX003 (ip), vehicle: other 93 % of control | dose: 200.0 mg/kg/injection, schedule: Q01DX009 (ip), vehicle: other 102 % of control | [21] 88 % of control | dose: 400.0 mg/kg/injection, schedule: Q01DX009 (ip), vehicle: other 93 % of control | [22] 86 % of control

Cc1cc2[nH]c(=O)c(=O)[nH]c2cc1C
inactive: dose: 50.0 mg/kg/injection, schedule: Q04DX003 (ip), vehicle: Klucel (hydroxypropylcellulose) (HPC) 104 % of control | [1] 105 % of control | [13] 94 % of control | [2] 100 % of control | [14] 100 % of control

CC(=O)ONCCc1ccc(S(=O)(=O)F)cc1
inactive: [13] 105 % of control | [14] 96 % of control | [15] 98 % of control

CC(=S)NC(=O)Nc1cccc2ccccc12
inactive: dose: 100.0 mg/kg/injection, schedule: Q01DX001 (ip), vehicle: Klucel (hydroxypropylcellulose) (HPC) 88 % of control | dose: 200.0 mg/kg/injection, schedule: Q01DX001 (ip), vehicle: Klucel (hydroxypropylcellulose) (HPC) 91 % of control

CC(=O)N(N=O)c1cc(Cl)ccc1Cl
inactive: [19] 113 % of control | [10] 110 % of control | [11] 101 % of control | [12] 107 % of control

O=C1c2ccccc2C(=O)N1CN1C(=O)c2ccccc2C1=O
inactive: [5] 88 % of control | [7] 91 % of control

CNC(=O)O/N=C(\C(=N\OC(=O)NC)c1ccccc1)c1ccccc1
inactive: [16] 96 % of control | [17] 96 % of control | [18] 96 % of control

Cc1cc(OC(=O)Nc2cccc(Cl)c2)ccc1Cl
inactive: [4] 91 % of control | [6] 93 % of control | [8] 95 % of control

ClC1=C(Cl)C2(Cl)C3C4CCC(C4)C3C1(Cl)C2(Cl)Cl (stereo not drawn)
inactive: [21] 121 % of control | [22] 108 % of control

O=C(O)c1c(Br)c(Br)c(Br)c(Br)c1C(=O)Nc1ccc([N+](=O)[O-])cc1
inactive: [1] 104 % of control | dose: 100.0 mg/kg/injection, schedule: Q04DX002 (ip), vehicle: Klucel (hydroxypropylcellulose) (HPC) 96 % of control | [2] 109 % of control | dose: 200.0 mg/kg/injection, schedule: Q04DX002 (ip), vehicle: Klucel (hydroxypropylcellulose) (HPC) 96 % of control | dose: 400.0 mg/kg/injection, schedule: Q04DX002 (ip), vehicle: Klucel (hydroxypropylcellulose) (HPC) 107 % of control
